Results on 20 molecules are retold here after patent publication US20240059703A1 (AMGEN INC., priority 2021, published 2024).

For assay [1], the system named is MIA PaCa-2 (human pancreatic carcinoma) cells. Nature of the assay: Cell Viability Assay (CellTiter-Glo), MIA PaCa-2. It is filed as cell-based. Particulars: Homo sapiens, MIA PaCa-2, 72 h. As to the method:
Serially-diluted compound or DMSO was added to the cells, and plates were incubated at 37° C., 5% CO2 for 72 h. Cell viability was measured using a CellTiter-Glo® Luminescent Cell Viability Assay kit (Promega) according to the manufacturer's protocol. The luminescence signal of treated samples was normalized to DMSO control, and data were analyzed using a 4-parameter logistic model to calculate IC50 values.

The test system of assay [2] is A549 (human lung carcinoma) cells. The experiment in a line: Cell Viability Assay (CellTiter-Glo), A549. It counts as cell-based. Particulars: Homo sapiens, A549, 72 h. A digest of the protocol:
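Cells grown in RPMI 1640 with 10% FBS were seeded at 1.67E+04 cells/mL and left overnight at 37° C., 5% CO2. They were then exposed to serially diluted compound for 72 h, after which CellTiter-Glo luminescence was read, normalized to DMSO, and fitted to a 4-parameter logistic model for IC50.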

A further assay concerns the target KRAS G12C (Homo sapiens (Human), UniProt P01116, C118A/G12C). Nature of the assay: 2 h coupled exchange assay. It counts as biochemical. Particulars: Avg 2 h Coupled exchange IC50, 2 h compound pre-incubation. The protocol:
The term “2 h coupled exchange assay” or “20 h coupled exchange assay” as used herein refers to the assay described in the Section entitled “BIOLOGICAL EVALUATION.”

Setting [3] is: SOS-mediated nucleotide exchange.

Structures are written as SMILES. pIC50: −log10 of the molar value.

Chain of KRAS G12C (P01116 other isoform, or with tags, fused parts or gaps G12C/C118A): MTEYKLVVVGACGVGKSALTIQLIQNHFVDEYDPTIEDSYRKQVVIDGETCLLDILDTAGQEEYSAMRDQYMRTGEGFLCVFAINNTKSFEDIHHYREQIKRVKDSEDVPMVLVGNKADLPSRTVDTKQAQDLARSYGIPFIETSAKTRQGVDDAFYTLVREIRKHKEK

`C=CC(=O)N1CC2(CCN(c3nc4c(c(-c5c(F)ccc6[nH]ncc56)c3C#N)COC(C)(C)C4)C2)C1` [Example 13-149, 4-(5-fluoro-1H-indazol-4-yl)-7,7-dimethyl-2-(2-(2-propenoyl)-2,6-diazaspiro[3.4]octan-6-yl)-7,8-dihydro-5H-pyrano[4,3-b]pyridine-3-carbonitrile]: the pIC50 is 6.21 in assay [1], 4.95 in assay [2] and 6.56 against KRAS G12C (setting [3]).

As to `C=CC(=O)N1CC2(CCN(c3nc4c(c(-c5c(C)cnc6[nH]ncc56)c3C#N)CCC(C)(C)C4)C2)C1` [Example 13-151, 7,7-dimethyl-4-(5-methyl-1H-pyrazolo[3,4-b]pyridin-4-yl)-2-(2-(2-propenoyl)-2,6-diazaspiro[3.4]octan-6-yl)-5,6,7,8-tetrahydro-3-quinolinecarbonitrile], the pIC50 in assay [1] was 5.92; in assay [2], 5.03; against KRAS G12C (setting [3]) it was 6.83.

Turning to `C=CC(=O)N1CC2(CCN(c3nc4c(c(-c5cccc(C)c5Cl)c3C#N)COC(C)(C)C4)C2)C1` [Example 13-152, 4-(2-chloro-3-methylphenyl)-7,7-dimethyl-2-(2-(2-propenoyl)-2,6-diazaspiro[3.4]octan-6-yl)-7,8-dihydro-5H-pyrano[4,3-b]pyridine-3-carbonitrile], the pIC50 in assay [1] was 5.71; in assay [2], 5.04; at KRAS G12C (setting [3]), 6.10.

As to `C=CC(=O)N1CC2(CCN(c3nc4c(c(-c5cc(O)cc(C)c5Cl)c3C#N)COC(C)(C)C4)C2)C1` [Example 13-153, 4-(2-chloro-5-hydroxy-3-methylphenyl)-7,7-dimethyl-2-(2-(2-propenoyl)-2,6-diazaspiro[3.4]octan-6-yl)-7,8-dihydro-5H-pyrano[4,3-b]pyridine-3-carbonitrile], the pIC50 in assay [1] was 7.24; in assay [2], less than 5.30; on KRAS G12C (setting [3]), 7.19.

`C=CC(=O)N1CC2(CCN(c3nc4c(c(-c5c(N)c(Cl)cc(Cl)c5F)c3C#N)COC(C)(C)C4)C2)C1` [Example 13-154, 4-(2-amino-3,5-dichloro-6-fluorophenyl)-7,7-dimethyl-2-(2-(2-propenoyl)-2,6-diazaspiro[3.4]octan-6-yl)-7,8-dihydro-5H-pyrano[4,3-b]pyridine-3-carbonitrile]: the pIC50 is 6.11 in assay [1], less than 5.30 in assay [2] and 7.09 at KRAS G12C (setting [3]).

For `C=CC(=O)N1CC2(CCN(c3nc4c(c(-c5c(N)cccc5F)c3C#N)COC(C)(C)C4)C2)C1` [Example 13-157, 4-(2-amino-6-fluorophenyl)-7,7-dimethyl-2-(2-(2-propenoyl)-2,6-diazaspiro[3.4]octan-6-yl)-7,8-dihydro-5H-pyrano[4,3-b]pyridine-3-carbonitrile], the pIC50 in assay [1] was 6.45; in assay [2] it was 4.79; against KRAS G12C (setting [3]), 6.26.

Regarding `C=CC(=O)N1CC2(CCN(c3nc4ccccc4c(-c4c(C)c(F)cc5[nH]ncc45)c3C#N)C2)C1` [Example 14-2, 4-(6-fluoro-5-methyl-1H-indazol-4-yl)-2-(2-(2-propenoyl)-2,6-diazaspiro[3.4]octan-6-yl)-3-quinolinecarbonitrile], the pIC50 is 6.34 in assay [1], less than 5.30 in assay [2] and 7.06 against KRAS G12C (setting [3]).

On to `C=CC(=O)N1CC2(CCN(c3nc4ccccc4c(-c4c(C)c(Cl)cc5[nH]ncc45)c3C#N)C2)C1` [Example 14-18, 4-(6-chloro-5-methyl-1H-indazol-4-yl)-2-(2-(2-propenoyl)-2,6-diazaspiro[3.4]octan-6-yl)-3-quinolinecarbonitrile], for which the pIC50 was 6.49 in assay [1], less than 5.30 in assay [2] and 7.37 on KRAS G12C.

In the case of `C=CC(=O)N1CC2(CCN(c3nc4cc(C5CC5)ccc4c(-c4c(C)ccc5[nH]ncc45)c3C#N)C2)C1` [Example 14-19, 7-cyclopropyl-4-(5-methyl-1H-indazol-4-yl)-2-(2-(2-propenoyl)-2,6-diazaspiro[3.4]octan-6-yl)-3-quinolinecarbonitrile], the pIC50 is 5.77 in assay [1], less than 5.30 in assay [2] and 6.89 against KRAS G12C.

For `C=CC(=O)N1CC2(C1)CN(c1nc3cc(OC)ccc3c(-c3c(C)ccc4[nH]ncc34)c1C#N)CC2(F)F` [Example 14-20, 2-(8,8-difluoro-2-(2-propenoyl)-2,6-diazaspiro[3.4]octan-6-yl)-7-methoxy-4-(5-methyl-1H-indazol-4-yl)-3-quinolinecarbonitrile], the results for the pIC50 (in assay [1]; in assay [2]; against KRAS G12C) were 5.59, less than 5.30 and 7.51, respectively.

As for `C=CC(=O)N1CC2(CCN(c3nc4cc(OC)ccc4c(-c4c(C)ccc5[nH]ncc45)c3C#N)C2C)C1` [Example 14-21, 7-methoxy-4-(5-methyl-1H-indazol-4-yl)-2-((5R)-5-methyl-2-(2-propenoyl)-2,6-diazaspiro[3.4]octan-6-yl)-3-quinolinecarbonitrile|7-methoxy-4-(5-methyl-1H-indazol-4-yl)-2-((5S)-5-methyl-2-(2-propenoyl)-2,6-diazaspiro[3.4]octan-6-yl)-3-quinolinecarbonitrile], the pIC50 is 6.35 in assay [1], less than 5.30 in assay [2] and 6.95 against KRAS G12C.

In the case of `C=CC(=O)N1CC2(CCN(c3nc4c(c(-c5c(C)ccc6[nH]ncc56)c3C)COC(C)(C)C4)C2)C1` [Example 14-23, 1-(6-(3,7,7-trimethyl-4-(5-methyl-1H-indazol-4-yl)-7,8-dihydro-5H-pyrano[4,3-b]pyridin-2-yl)-2,6-diazaspiro[3.4]octan-2-yl)-2-propen-1-one], the pIC50 is 7.74 in assay [1], less than 5.30 in assay [2] and 6.99 on KRAS G12C.

On to `C=CC(=O)N1CC2(CCN(c3nc4c(c(-c5cccc6cn[nH]c56)c3C#N)C[C@H]3C[C@@H]4C3(C)C)C2)C1` [Example 14-25, (1R,9R)-6-(1H-indazol-7-yl)-10,10-dimethyl-4-(2-(2-propenoyl)-2,6-diazaspiro[3.4]octan-6-yl)-3-azatricyclo[7.1.1.0^2,7]undeca-2,4,6-triene-5-carbonitrile], for which the pIC50 in assay [1] was 6.17; in assay [2], less than 5.30; against KRAS G12C, 6.96.

With `C=CC(=O)N1CC2(CCN(c3nc4c(c(-c5cc(O)cc6ccccc56)c3C)COC(C)(C)C4)C2)C1` [Example 14-26, 1-(6-(4-(3-hydroxy-1-naphthalenyl)-3,7,7-trimethyl-7,8-dihydro-5H-pyrano[4,3-b]pyridin-2-yl)-2,6-diazaspiro[3.4]octan-2-yl)-2-propen-1-one], the pIC50 in assay [1] was 7.12; in assay [2], less than 5.30; against KRAS G12C, 7.17.

Regarding `C=CC(=O)N1CC2(CCN(c3nc4c(c(-c5c(C)c(C)cc6cnn(C)c56)c3C)COC(C)(C)C4)C2)C1` [Example 14-40, 1-(6-(3,7,7-trimethyl-4-(1,5,6-trimethyl-1H-indazol-7-yl)-7,8-dihydro-5H-pyrano[4,3-b]pyridin-2-yl)-2,6-diazaspiro[3.4]octan-2-yl)-2-propen-1-one], the pIC50 in assay [1] was 6.30; in assay [2], less than 5.30; on KRAS G12C, 6.96.

Regarding `C=CC(=O)N1CC2(CCN(c3nc4c(c(-c5cccc6cc(O)ccc56)c3C)COC(C)(C)C4)C2)C1` [Example 14-43, 1-(6-(4-(6-hydroxy-1-naphthalenyl)-3,7,7-trimethyl-7,8-dihydro-5H-pyrano[4,3-b]pyridin-2-yl)-2,6-diazaspiro[3.4]octan-2-yl)-2-propen-1-one], the pIC50 in assay [1] was 6.87; in assay [2], less than 5.30; against KRAS G12C it was 6.96.

In the case of `C=CC(=O)N1CC2(CCN(c3nc4cc(-c5c(C)nn(C)c5C)ccc4c(-c4ccccc4Cl)c3C#N)C2)C1` [Example 14-46, 4-(2-chlorophenyl)-2-(2-(2-propenoyl)-2,6-diazaspiro[3.4]octan-6-yl)-7-(1,3,5-trimethyl-1H-pyrazol-4-yl)-3-quinolinecarbonitrile], the negative logarithm of the IC50 (pIC50) in assay [1] was 6.34; in assay [2], 5.62; against KRAS G12C it was 6.95.

On to `C=CC(=O)N1CC2(CCN(c3nc4c(OC)cccc4c(-c4c(C)ccc5[nH]ncc45)c3C#N)C2)C1` [Example 14-47, 8-methoxy-4-(5-methyl-1H-indazol-4-yl)-2-(2-(2-propenoyl)-2,6-diazaspiro[3.4]octan-6-yl)-3-quinolinecarbonitrile], for which the pIC50 in assay [1] is less than 5.30; in assay [2], less than 5.30; at KRAS G12C, 6.32.

For `C=CC(=O)N1CC2(CCN(c3nc4c(c(-c5c(C)ccc6cn[nH]c56)c3C#N)C[C@H]3C[C@@H]4C3(C)C)C2)C1` [Example 14-48, (1R,9R)-10,10-dimethyl-6-(6-methyl-1H-indazol-7-yl)-4-(2-(2-propenoyl)-2,6-diazaspiro[3.4]octan-6-yl)-3-azatricyclo[7.1.1.0^2,7]undeca-2,4,6-triene-5-carbonitrile], the pIC50 was 7.28 in assay [1], less than 5.30 in assay [2] and 7.21 on KRAS G12C.

As for `C=CC(=O)N1CC2(CCN(c3nc4c(c(-c5cc(O)ccc5C)c3F)C[C@H]3C[C@@H]4C3(C)C)C2)C1` [Example 14-50, 1-(6-((1R,9R)-5-fluoro-6-(5-hydroxy-2-methylphenyl)-10,10-dimethyl-3-azatricyclo[7.1.1.0^2,7]undeca-2,4,6-trien-4-yl)-2,6-diazaspiro[3.4]octan-2-yl)-2-propen-1-one], the pIC50 in assay [1] was 5.79; in assay [2], less than 5.30; at KRAS G12C it was 7.19.
